Test system: human embryonic stem cells
Test: Metabolite profiling (LC/ESI-TOF mass spectrometry) of extracellular media of hESCs treated with alcohol
Assay type: cell-based
Settings: ETOH 0.3
Source text: Binned masses were annotated in silico by querying the neutral masses in several different databases. These databases included Metlin, Biological Magnetic Resonance Data Bank (BMRB), NIST Chemistry WebBook, and the Human Metabolome Database. A mass was considered identified when its neutral mass was within 10 ppm of a known compound annotated in one of the databases listed above.

CCO [ETOH]
Fold: Unknown, mass 268.2487, RT 42.3656 (4 D): −1.517 fold
Fold: Unknown, mass 284.9798, RT 5.69776 (4 D): −1.2223 fold
Fold: Unknown, mass 286.1519, RT 14.88092 (4 D): −1.862 fold
Fold: Unknown, mass 293.1952, RT 66.86661 (4 D): −2.154 fold
Fold: Unknown, mass 293.9773, RT 4.014175 (4 D): −2.267 fold
Fold: Unknown, mass 294.1535, RT 20.67831 (4 D): −1.422 fold
Fold: Unknown, mass 295.1521, RT 8.967061 (4 D): 1.467 fold
Fold: Unknown, mass 301.1345, RT 7.719471 (4 D): 2.678 fold
Fold: Unknown, mass 315.6732, RT 26.51229 (4 D): −2.865 fold
Fold: Unknown, mass 322.1166, RT 23.90107 (4 D): −2.4215 fold
Fold: Unknown, mass 332.1367, RT 20.72194 (4 D): −2.077 fold
Fold: Unknown, mass 340.9252, RT 5.033976 (4 D): 2.625 fold
Fold: Unknown, mass 353.2765, RT 3.85935 (4 D): 4.904 fold
Fold: Unknown, mass 365.1606, RT 20.16372 (4 D): −1.925 fold
Fold: Unknown, mass 375.1886, RT 26.07722 (4 D): −4.751 fold
Fold: Unknown, mass 375.1898, RT 11.47109 (4 D): 2.132 fold
Fold: Unknown, mass 383.1721, RT 15.20829 (4 D): 3.377 fold
Fold: Unknown, mass 387.0812, RT 19.97914 (4 D): −1.699 fold
Fold: Unknown, mass 388.2349, RT 46.346 (4 D): −1.532 fold
Fold: Unknown, mass 393.1886, RT 19.69092 (4 D): −2.059 fold
Fold: Unknown, mass 396.1687, RT 6.259963 (4 D): 2.422 fold
Fold: Unknown, mass 403.1984, RT 17.27421 (4 D): −2.303 fold
Fold: Unknown, mass 417.2338, RT 33.09057 (4 D): −1.78 fold
Fold: Unknown, mass 417.2386, RT 21.14975 (4 D): −1.573 fold
Fold: Unknown, mass 420.0513, RT 13.35295 (4 D): −1.902 fold
Fold: Unknown, mass 421.2201, RT 27.46219 (4 D): −2.273 fold
Fold: Unknown, mass 429.2533, RT 18.03482 (4 D): −2.201 fold
Fold: Unknown, mass 443.2339, RT 30.87201 (4 D): 2.171 fold
Fold: Unknown, mass 443.3216, RT 67.0705 (4 D): 1.688 fold
Fold, Unknown metabolite, Mass 994.0917 (4 D, retention time 3.646902): 1.605
Fold, Unknown metabolite, Mass 980.075 (4 D, retention time 3.680188): 1.481
Fold, Unknown metabolite, Mass 1008.072 (4 D, retention time 3.705141): 1.416
Fold, Unknown metabolite, Mass 820.8181 (4 D, retention time 4.613879): −1.571
Fold, Unknown metabolite, Mass 611.8727 (4 D, retention time 4.936704): 2.01
Fold, Unknown metabolite, Mass 1038.786 (4 D, retention time 5.177162): 1.588
Fold, Unknown metabolite, Mass 921.0025 (4 D, retention time 5.399211): 1.945
Fold, Unknown metabolite, Mass 555.8505 (4 D, retention time 5.742094): −1.3396
Fold, Unknown metabolite, Mass 1040.323 (4 D, retention time 5.8905): −1.479
Fold, Unknown metabolite, Mass 509.6704 (4 D, retention time 5.891069): 1.468
Fold, metabolite Ethanesulfonic acid, Mass 579.2519 (4 D, retention time 5.903169): −2.112
Fold, Unknown metabolite, Mass 646.7084 (4 D, retention time 5.903429): 2.946
Fold, Unknown metabolite, Mass 732.007 (4 D, retention time 5.918027): 1.761
Fold, Unknown metabolite, Mass 658.2544 (4 D, retention time 8.787827): −3.21
Fold, Unknown metabolite, Mass 502.2258 (4 D, retention time 13.78553): 1.866
Fold, Unknown metabolite, Mass 566.2265 (4 D, retention time 14.9927): 1.624
Fold, Unknown metabolite, Mass 555.2406 (4 D, retention time 15.78741): 2.471
Fold, Unknown metabolite, Mass 577.2825 (4 D, retention time 16.90923): −8.917
Fold, Unknown metabolite, Mass 505.2616 (4 D, retention time 18.36887): 2.009
Fold, Unknown metabolite, Mass 489.2127 (4 D, retention time 21.72729): 2.372
Fold, Unknown metabolite, Mass 462.2217 (4 D, retention time 22.95657): 1.936
Fold, metabolite L-Oleandrosyl-oleandolide, Mass 530.314 (4 D, retention time 23.87065): 2.212
Fold, Unknown metabolite, Mass 574.3397 (4 D, retention time 24.7039): 1.524
Fold, metabolite L-Urobilinogen, Mass 596.3543 (4 D, retention time 25.14927): 1.545
Fold, Unknown metabolite, Mass 661.3846 (4 D, retention time 26.7452): 1.547
Fold, Unknown metabolite, Mass 447.2509 (4 D, retention time 29.86415): −1.858
Fold, Unknown metabolite, Mass 478.2761 (4 D, retention time 30.28867): 1.51
Fold, metabolite glucuronide, Mass 471.1928 (4 D, retention time 30.37291): 2.726
Fold, Unknown metabolite, Mass 449.2653 (4 D, retention time 30.45343): −2.414
Fold, Unknown metabolite, Mass 471.7804 (4 D, retention time 30.72707): −3.441
Fold, Unknown metabolite, Mass 510.8202 (4 D, retention time 31.22083): 2.502
Fold, Unknown metabolite, Mass 559.8329 (4 D, retention time 31.97996): −2.566
Fold, Unknown metabolite, Mass 635.4065 (4 D, retention time 32.08734): 1.395
Fold, Unknown metabolite, Mass 531.2876 (4 D, retention time 32.50661): 2.361
Fold, Unknown metabolite, Mass 603.3535 (4 D, retention time 32.67372): −2.94
Fold, Unknown metabolite, Mass 460.9391 (4 D, retention time 33.51823): −3.602
Fold, Unknown metabolite, Mass 619.3409 (4 D, retention time 33.68866): 2.126
Fold, Unknown metabolite, Mass 796.9917 (4 D, retention time 34.60124): 1.689
Fold, Unknown metabolite, Mass 751.4193 (4 D, retention time 35.028): 1.845
Fold, Unknown metabolite, Mass 531.3191 (4 D, retention time 35.58454): −3.0409
Fold, metabolite Neu5Acalpha2-3Galbeta1-4Glcbeta-Sp, Mass 702.2497 (4 D, retention time 40.84822): −2.216
Fold, Unknown metabolite, Mass 518.3914 (4 D, retention time 46.57666): 2.289
Fold, Unknown metabolite, Mass 731.0954 (4 D, retention time 47.76987): −3.25
Fold, Unknown metabolite, Mass 576.096 (4 D, retention time 47.90467): 1.558
Fold, Unknown metabolite, Mass 444.2237 (4 D, retention time 51.58546): 2.03
Fold, Unknown metabolite, Mass 468.2002 (4 D, retention time 51.6158): 1.92
Fold, Unknown metabolite, Mass 526.2773 (4 D, retention time 51.73057): 2.715
Fold, Unknown metabolite, Mass 446.0431 (4 D, retention time 54.8719): 1.934
Fold, Unknown metabolite, Mass 531.3736 (4 D, retention time 66.31491): 2.874
Fold, Unknown metabolite, Mass 487.3472 (4 D, retention time 66.73744): 2.878
Fold, Unknown metabolite, Mass 528.3631 (4 D, retention time 71.36012): 2.361
Fold, Unknown metabolite, Mass 556.3971 (4 D, retention time 88.02533): −2.384
Fold: 1,3-Dimethyl-8-isoquinolinol, mass 173.084, RT 20.23014 (24 H): −1.44 fold
Fold: 3,4-Dihydroxybutyric acid, mass 129.0452, RT 16.73904 (24 H): 1.796 fold
Fold: 3-Methoxytyramine / Phenylephrine, mass 167.0941, RT 23.6763 (24 H): −2.83 fold
